Results on three compounds are retold here after US4082760A, “Derivatives of 2H,3H-benzimidazo(1,2-b)oxazole” (Italchemi S.p.A. Istituto Chimico Farmaceutico, priority 1975, dated 1978).

The structures appear in SMILES notation.

Holding throughout (test): MIC of antibiotics alone or mixed with equimolar compound, beta-lactamase-producing germs
Type in all cases: cell-based

One assay has as its system Escherichia Coli R3. The conditions noted are these: combinations: equimolar quantities. The text has this: (§1) The capacity of the products of general formula (I) to compete with the action of the beta-lactamase may be shown by comparing the minimum inhibiting concentrations (MIC) of some penicillins and cephalosporins when mixed with equimolar quantities of the products of general formula I and when not so mixed, in relation to pathogenic germs which produce beta-lactamase.

A further assay concerns Protetts mirabilis R2. The settings on record: combinations: equimolar quantities.
Excerpt: as §1

The next assay has as its system Protetts mirabilis R7. The settings on record: combinations: equimolar quantities.
Excerpt: as §1

In a further assay the test system is Escherichia Coli R8. The settings on record: combinations: equimolar quantities.
Excerpt: as §1

For the next assay, the system named is Protetts mirabilis. The settings on record: Protetts mirabilis (strain number not given); combinations: equimolar quantities.
Excerpt: as §1

The next assay relates to Protetts Rettgeri R5. The conditions noted are these: combinations: equimolar quantities.
Excerpt: as §1

For a further assay, the system named is Escherichia Coli R9. The conditions noted are these: combinations: equimolar quantities.
Excerpt: as §1

The subject of assay [1] is Pseudomonas Aeruginosa R4. The conditions noted are these: combinations: equimolar quantities.
Excerpt: as §1

Assay [2] deals with Pseudomonas Aeruginosa R1. The conditions noted are these: combinations: equimolar quantities.
Excerpt: as §1

Consider `CC1(C)S[C@@H]2[C@H](NC(=O)[C@H](N)c3ccccc3)C(=O)N2[C@H]1C(=O)O` [Ampicillin], for which the MIC is recorded as 1000 γ/cc in the assay with Escherichia Coli R3; 1000 γ/cc in the assay on Protetts mirabilis R2; 1000 γ/cc in the assay on Protetts mirabilis R7; 500 γ/cc in the assay on Escherichia Coli R8; 1000 γ/cc with Protetts mirabilis; 1000 γ/cc with Protetts Rettgeri R5. Also, the MIC was 500 γ/cc with Escherichia Coli R9 and 1000 γ/cc in assay [1].
In the case of `O=C(Cc1cccs1)N[C@@H]1C(=O)N2C(C(=O)[O-])=C(C[n+]3ccccc3)CS[C@H]12` [Cephaloridine], in assay [2], the MIC is 1000 γ/cc.
For `CC(=O)OCC1=C(C(=O)O)N2C(=O)[C@@H](NC(=O)Cc3cccs3)[C@H]2SC1` [Cephalothin], the MIC (with Escherichia Coli R9; in assay [1]) was 1000 γ/cc throughout.
